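Protocol summary: plate cells (96-well), add compound at 5 concentrations, incubate 48 h, interpolate endpoints linearly. Here, GI50 denotes the concentration required for 50% inhibition of growth.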 Active and inactive are the calls of the source. Cut-off read from the data, not from the text of the source: active = GI50 up to about 1.1 µM and inactive = higher.
Experiments:
Test in all cases: NCI tumour cell line growth inhibition, 48 h
[1] = system: HT-29
[2] = system: SK-OV-3
[3] = system: OVCAR-4
[4] = system: OVCAR-5
[5] = system: MCF7
[6] = system: CAKI-1
[7] = system: COLO 205
[8] = system: Malme-3M
[9] = system: MDA-MB-435
[10] = system: HCT-116
[11] = system: HCT-15
[12] = system: SNB-75
[13] = system: MDA-N
[14] = system: LOX IMVI
[15] = system: IGROV-1
[16] = system: RXF 393
[17] = system: HOP-62
[18] = system: K562
[19] = system: CCRF-CEM

SMILES | GI50 [1] | GI50 [2] | GI50 [3] | GI50 [4] | GI50 [5] | GI50 [6] | GI50 [7] | GI50 [8] | GI50 [9] | GI50 [10] | GI50 [11] [µM] | GI50 [12] | GI50 [13] | GI50 [14] | GI50 [15] | GI50 [16] | GI50 [17] | GI50 [18] | GI50 [19]
O=c1cc(-c2ccc(O)c(O)c2)oc2cc(O[C@H]3O[C@H](CO)[C@@H](O)[C@H](O)[C@H]3O)cc(O)c12 | 67.8 µM (inactive) | > 100 µM (inactive) | > 100 µM (inactive) | > 100 µM (inactive) | > 100 µM (inactive) | 89.9 µM (inactive) | > 100 µM (inactive) | > 100 µM (inactive) | > 100 µM (inactive) | 28.8 µM (inactive) | 41.5 | 20.2 µM (inactive) | > 100 µM (inactive) | 35.6 µM (inactive) | > 100 µM (inactive) | > 100 µM (inactive) | > 100 µM (inactive) | – | –
COc1c2c(c3c(c1CCC(=O)O)OC(C)(C)C=C3)OC(C)(C)C=C2 | > 100 µM (inactive) | > 100 µM (inactive) | > 100 µM (inactive) | > 100 µM (inactive) | > 100 µM (inactive) | > 100 µM (inactive) | > 100 µM (inactive) | > 100 µM (inactive) | 28.9 µM (inactive) | 94.8 µM (inactive) | > 100 | > 100 µM (inactive) | 31.4 µM (inactive) | > 100 µM (inactive) | > 100 µM (inactive) | > 100 µM (inactive) | > 100 µM (inactive) | 55.8 µM (inactive) | –
O=C(Nc1sccc1S(=O)(=O)c1ccccc1)c1ccccc1 | > 31.6 µM (inactive) | > 100 µM (inactive) | > 57.9 µM (inactive) | > 100 µM (inactive) | > 100 µM (inactive) | > 100 µM (inactive) | > 88.1 µM (inactive) | > 100 µM (inactive) | 3.69 µM (inactive) | > 100 µM (inactive) | 7.16 | > 100 µM (inactive) | 3.73 µM (inactive) | > 100 µM (inactive) | > 100 µM (inactive) | – | > 70.5 µM (inactive) | 1.91 µM (inactive) | –
C=C1CCOC2(C(O)C(C)(O)CO)NC(=O)C1(O)NC2=O (stereo not given) | > 100 µM (inactive) | > 100 µM (inactive) | > 100 µM (inactive) | > 100 µM (inactive) | > 100 µM (inactive) | > 100 µM (inactive) | > 100 µM (inactive) | > 100 µM (inactive) | > 100 µM (inactive) | > 100 µM (inactive) | > 100 | > 100 µM (inactive) | > 100 µM (inactive) | > 100 µM (inactive) | > 100 µM (inactive) | > 100 µM (inactive) | > 100 µM (inactive) | > 100 µM (inactive) | > 100 µM (inactive)
O=[N+]([O-])/C(Cl)=C(/C(Cl)=C(Cl)Cl)N1CCOCC1 | 3.4 µM (inactive) | 13.8 µM (inactive) | 5.51 µM (inactive) | 7.93 µM (inactive) | 1.12 µM (active) | 4.34 µM (inactive) | 2.54 µM (inactive) | 1.44 µM (inactive) | 2.28 µM (inactive) | 2.44 µM (inactive) | 1.56 | 4.03 µM (inactive) | 2.32 µM (inactive) | 3.66 µM (inactive) | 1.92 µM (inactive) | 2.61 µM (inactive) | – | 3.18 µM (inactive) | 1.8 µM (inactive)
O=C(O)CSC1=NC(=O)C2(NN1)c1ccccc1-c1ccccc12 | > 10 µM (inactive) | > 10 µM (inactive) | > 10 µM (inactive) | – | > 10 µM (inactive) | > 10 µM (inactive) | > 10 µM (inactive) | > 10 µM (inactive) | > 10 µM (inactive) | > 10 µM (inactive) | > 10 | > 10 µM (inactive) | > 10 µM (inactive) | > 10 µM (inactive) | > 10 µM (inactive) | > 10 µM (inactive) | > 10 µM (inactive) | > 10 µM (inactive) | > 10 µM (inactive)
O=C1c2ccccc2-n2c1nc1cc(Cl)ccc1c2=O | 61.9 µM (inactive) | > 100 µM (inactive) | 27.7 µM (inactive) | > 100 µM (inactive) | > 100 µM (inactive) | 36.8 µM (inactive) | > 100 µM (inactive) | 6.7 µM (inactive) | 2.02 µM (inactive) | > 100 µM (inactive) | 21.2 | 85.9 µM (inactive) | 14.5 µM (inactive) | 14 µM (inactive) | 33.3 µM (inactive) | 55.7 µM (inactive) | 81.7 µM (inactive) | 4.05 µM (inactive) | 3.84 µM (inactive)
CCOc1cc(NC(C)=O)ccc1C(=O)NN1C(=O)CSC1c1ccccc1 (stereo not given) | > 100 µM (inactive) | > 100 µM (inactive) | 84.1 µM (inactive) | > 100 µM (inactive) | 78.5 µM (inactive) | > 100 µM (inactive) | 75 µM (inactive) | 86.3 µM (inactive) | > 100 µM (inactive) | > 100 µM (inactive) | 60.3 | 95.3 µM (inactive) | 84.9 µM (inactive) | > 100 µM (inactive) | > 100 µM (inactive) | 74.6 µM (inactive) | > 100 µM (inactive) | 28.8 µM (inactive) | 37.8 µM (inactive)
